Laboratory results reported in patent EP3002287B1, “Thiochromeno[2,3-c]quinolin-12-one derivatives and their use as topoisomerase inhibitors” (National Defense Medical Center, priority 2014, dated 2016).

Tests used:
IGROV1 = assay: NCI in vitro 60-cell drug screen (SRB assay); assay type: cell-based; conditions: IGROV1 (Ovarian cancer); 10^-5 molar concentration; 48 hours
UACC-257 = assay: NCI in vitro 60-cell drug screen (SRB assay); assay type: cell-based; conditions: UACC-257 (Melanoma); 10^-5 molar concentration; 48 hours
A549/ATCC = assay: NCI in vitro 60-cell drug screen (SRB assay); assay type: cell-based; conditions: A549/ATCC (Non-small cell lung cancer); 10^-5 molar concentration; 48 hours
SF-268 = assay: NCI in vitro 60-cell drug screen (SRB assay); assay type: cell-based; conditions: SF-268 (CNS cancer); 10^-5 molar concentration; 48 hours
NCI-H226 = assay: NCI in vitro 60-cell drug screen (SRB assay); assay type: cell-based; conditions: NCI-H226 (Non-small cell lung cancer); 10^-5 molar concentration; 48 hours
NCI/ADR-RES = assay: NCI in vitro 60-cell drug screen (SRB assay); assay type: cell-based; conditions: NCI/ADR-RES (Ovarian cancer); 10^-5 molar concentration; 48 hours
HL-60(TB) = assay: NCI in vitro 60-cell drug screen (SRB assay); assay type: cell-based; conditions: HL-60(TB) (Leukemia); 10^-5 molar concentration; 48 hours
HCT-15 = assay: NCI in vitro 60-cell drug screen (SRB assay); assay type: cell-based; conditions: HCT-15 (Colon cancer); 10^-5 molar concentration; 48 hours
MCF7 = assay: NCI in vitro 60-cell drug screen (SRB assay); assay type: cell-based; conditions: MCF7 (Breast cancer); 10^-5 molar concentration; 48 hours
NCI-H23 = assay: NCI in vitro 60-cell drug screen (SRB assay); assay type: cell-based; conditions: NCI-H23 (Non-small cell lung cancer); 10^-5 molar concentration; 48 hours
HOP-62 = assay: NCI in vitro 60-cell drug screen (SRB assay); assay type: cell-based; conditions: HOP-62 (Non-small cell lung cancer); 10^-5 molar concentration; 48 hours
DU-145 = assay: NCI in vitro 60-cell drug screen (SRB assay); assay type: cell-based; conditions: DU-145 (Prostate cancer); 10^-5 molar concentration; 48 hours
COLO 205 = assay: NCI in vitro 60-cell drug screen (SRB assay); assay type: cell-based; conditions: COLO 205 (Colon cancer); 10^-5 molar concentration; 48 hours
CAKI-1 = assay: NCI in vitro 60-cell drug screen (SRB assay); assay type: cell-based; conditions: CAKI-1 (Renal cancer); 10^-5 molar concentration; 48 hours
HCT-116 = assay: NCI in vitro 60-cell drug screen (SRB assay); assay type: cell-based; conditions: HCT-116 (Colon cancer); 10^-5 molar concentration; 48 hours
OVCAR-5 = assay: NCI in vitro 60-cell drug screen (SRB assay); assay type: cell-based; conditions: OVCAR-5 (Ovarian cancer); 10^-5 molar concentration; 48 hours
A498 = assay: NCI in vitro 60-cell drug screen (SRB assay); assay type: cell-based; conditions: A498 (Renal cancer); 10^-5 molar concentration; 48 hours
UO-31 = assay: NCI in vitro 60-cell drug screen (SRB assay); assay type: cell-based; conditions: UO-31 (Renal cancer); 10^-5 molar concentration; 48 hours
HS 578T = assay: NCI in vitro 60-cell drug screen (SRB assay); assay type: cell-based; conditions: HS 578T (Breast cancer); 10^-5 molar concentration; 48 hours
NCI-H522 = assay: NCI in vitro 60-cell drug screen (SRB assay); assay type: cell-based; conditions: NCI-H522 (Non-small cell lung cancer); 10^-5 molar concentration; 48 hours
OVCAR-3 = assay: NCI in vitro 60-cell drug screen (SRB assay); assay type: cell-based; conditions: OVCAR-3 (Ovarian cancer); 10^-5 molar concentration; 48 hours
BT-549 = assay: NCI in vitro 60-cell drug screen (SRB assay); assay type: cell-based; conditions: BT-549 (Breast cancer); 10^-5 molar concentration; 48 hours
PC-3 = assay: NCI in vitro 60-cell drug screen (SRB assay); assay type: cell-based; conditions: PC-3 (Prostate cancer); 10^-5 molar concentration; 48 hours
LOX IMVI = assay: NCI in vitro 60-cell drug screen (SRB assay); assay type: cell-based; conditions: LOX IMVI (Melanoma); 10^-5 molar concentration; 48 hours
SNB-75 = assay: NCI in vitro 60-cell drug screen (SRB assay); assay type: cell-based; conditions: SNB-75 (CNS cancer); 10^-5 molar concentration; 48 hours
CCRF-CEM = assay: NCI in vitro 60-cell drug screen (SRB assay); assay type: cell-based; conditions: CCRF-CEM (Leukemia); 10^-5 molar concentration; 48 hours
SF-539 = assay: NCI in vitro 60-cell drug screen (SRB assay); assay type: cell-based; conditions: SF-539 (CNS cancer); 10^-5 molar concentration; 48 hours
60 cell lines = assay: NCI in vitro 60-cell drug screen (SRB assay), whole panel statistics; conditions: mean over the cell panel; 10^-5 molar concentration; 48 hours
K-562 = assay: NCI in vitro 60-cell drug screen (SRB assay); assay type: cell-based; conditions: K-562 (Leukemia); 10^-5 molar concentration; 48 hours
TK-10 = assay: NCI in vitro 60-cell drug screen (SRB assay); assay type: cell-based; conditions: TK-10 (Renal cancer); 10^-5 molar concentration; 48 hours
MDA-MB-435 = assay: NCI in vitro 60-cell drug screen (SRB assay); assay type: cell-based; conditions: MDA-MB-435 (Melanoma); 10^-5 molar concentration; 48 hours
UACC-62 = assay: NCI in vitro 60-cell drug screen (SRB assay); assay type: cell-based; conditions: UACC-62 (Melanoma); 10^-5 molar concentration; 48 hours
T-47D = assay: NCI in vitro 60-cell drug screen (SRB assay); assay type: cell-based; conditions: T-47D (Breast cancer); 10^-5 molar concentration; 48 hours
SK-MEL-5 = assay: NCI in vitro 60-cell drug screen (SRB assay); assay type: cell-based; conditions: SK-MEL-5 (Melanoma); 10^-5 molar concentration; 48 hours
SF-295 = assay: NCI in vitro 60-cell drug screen (SRB assay); assay type: cell-based; conditions: SF-295 (CNS cancer); 10^-5 molar concentration; 48 hours
SK-OV-3 = assay: NCI in vitro 60-cell drug screen (SRB assay); assay type: cell-based; conditions: SK-OV-3 (Ovarian cancer); 10^-5 molar concentration; 48 hours
SN12C = assay: NCI in vitro 60-cell drug screen (SRB assay); assay type: cell-based; conditions: SN12C (Renal cancer); 10^-5 molar concentration; 48 hours

O=c1c2cc(Cl)ccc2sc2c(N3CCOCC3)nc3ccccc3c12 [Compound 13, 10-Chloro-6-morpholino-12H-thiochromeno[2,3-c]quinolin-12-one]
Growth percent (IGROV1): 80.90%
Growth percent (UACC-257): 110.91%
Growth percent (A549/ATCC): 92.97%
Growth percent (SF-268): 103.56%
Growth percent (NCI-H226): 88.01%
Growth percent (NCI/ADR-RES): 98.16%
Growth percent (HL-60(TB)): 93.38%
Growth percent (HCT-15): 93.81%
Growth percent (MCF7): 50.59%
Growth percent (NCI-H23): 95.21%
Growth percent (HOP-62): 70.77%
Growth percent (DU-145): 110.81%
Growth percent (COLO 205): 99.24%
Growth percent (CAKI-1): 90.00%
Growth percent (HCT-116): 85.71%
Growth percent (OVCAR-5): 95.97%
Growth percent (A498): 94.15%
Growth percent (UO-31): 73.11%
Growth percent (HS 578T): 83.27%
Growth percent (NCI-H522): 89.60%
Growth percent (OVCAR-3): 96.54%
Growth percent (BT-549): 113.81%
Growth percent (PC-3): 79.80%
Growth percent (LOX IMVI): 89.82%
Growth percent (SNB-75): 76.88%
Growth percent (CCRF-CEM): 88.02%
Growth percent (SF-539): 82.38%
Growth percent, Mean (60 cell lines): 90.52%
Growth percent (K-562): 81.18%
Growth percent (TK-10): 86.24%
Growth percent (MDA-MB-435): 102.07%
Growth percent (UACC-62): 87.86%
Growth percent (T-47D): 80.00%
Growth percent (SK-MEL-5): 95.88%
Growth percent (SF-295): 93.62%
Growth percent (SK-OV-3): 77.18%
Growth percent (SN12C): 96.81%
